In article PMC6364417, “Kinase inhibitor library screening identifies synergistic drug combinations effective in sensitive and resistant melanoma cells” (Journal of Experimental & Clinical Cancer Research : CR, 2019):

How the values were obtained:
Experiment in all cases: Kinase inhibitor library screening, PrestoBlue cell viability, 1 or 10 μM, 72 h
[1] = system: A375-XP cells (Vemurafenib-resistant); conditions: A375 XP, 72 h; for cell viability, A375 XP, 1μΜ / cell viability, A375 XP, 10μΜ: in %
[2] = system: A375-GP cells (Dabrafenib-resistant); conditions: A375 GP, 72 h
A375 cells (parental) = conditions: A375 Parental, 72 h; for cell viability, A375 Parental, 1μΜ / cell viability, A375 Parental, 10μΜ: in %
[3] = system: 501Mel-XP cells (Vemurafenib-resistant); conditions: 501Mel XP, 72 h
[4] = system: 501Mel-GP cells (Dabrafenib-resistant); conditions: 501Mel GP, 72 h
[5] = system: IGR37-GP cells (Dabrafenib-resistant); conditions: IGR37 GP, 72 h
501Mel cells (parental) = conditions: 501Mel Parental, 72 h
Outline: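 Kinase inhibitors added at two fixed concentrations; 72 h exposure; PrestoBlue readout; % viability vs untreated; n ≥ 2 per line.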

IGR37 cells (parental) = conditions: IGR37 Parental, 72 h
[6] = system: IGR37-XP cells (Vemurafenib-resistant); conditions: IGR37 XP, 72 h; for cell viability, IGR37 XP, 1μΜ: in %

CC(C)(C)c1cc(/C=C(\C#N)C(N)=S)cc(C(C)(C)C)c1O [Tyrphostin AG 879 (AG 879)]
cell viability, A375 XP, 1μΜ ([1]; 1μΜ): 105.8
cell viability, A375 XP, 10μΜ ([1]; 10μΜ): 24.1
cell viability, A375 GP, 10μΜ ([2]; 10μΜ, in %): 19.7
cell viability, A375 Parental, 1μΜ (A375 cells (parental); 1μΜ): 103.1
cell viability, A375 Parental, 10μΜ (A375 cells (parental); 10μΜ): 21.0
cell viability, 501Mel XP, 1μΜ ([3]; 1μΜ, in %): 98.6
cell viability, 501Mel XP, 10μΜ ([3]; 10μΜ, in %): 18.3
cell viability, 501Mel GP, 1μΜ ([4]; 1μΜ, in %): 110.4
cell viability, 501Mel GP, 10μΜ ([4]; 10μΜ, in %): 23.6
cell viability, IGR37 GP, 10μΜ ([5]; 10μΜ): 60.1%
cell viability, 501Mel Parental, 1μΜ (501Mel cells (parental); 1μΜ, in %): 115.0
cell viability, 501Mel Parental, 10μΜ (501Mel cells (parental); 10μΜ, in %): 44.8
cell viability, IGR37 Parental, 10μΜ (IGR37 cells (parental); 10μΜ, in %): 83.4
cell viability, IGR37 XP, 10μΜ ([6]; 10μΜ): 21.5%
cell viability, IGR37 XP, 1μΜ [6]: 90.9

CCO.N#CC(=C(/N)Sc1ccccc1N)/C(C#N)=C(\N)Sc1ccccc1N [U0126-EtOH]
cell viability, A375 XP, 1μΜ ([1]; 1μΜ): 94.5
cell viability, A375 XP, 10μΜ ([1]; 10μΜ): 60.2
cell viability, A375 GP, 1μΜ ([2]; 1μΜ, in %): 93.9
cell viability, A375 GP, 10μΜ ([2]; 10μΜ, in %): 64.5
cell viability, A375 Parental, 1μΜ (A375 cells (parental); 1μΜ): 100.1
cell viability, A375 Parental, 10μΜ (A375 cells (parental); 10μΜ): 39.4
cell viability, 501Mel XP, 1μΜ ([3]; 1μΜ, in %): 86.9
cell viability, 501Mel XP, 10μΜ ([3]; 10μΜ, in %): 62.2
cell viability, 501Mel GP, 1μΜ ([4]; 1μΜ, in %): 105.2
cell viability, 501Mel GP, 10μΜ ([4]; 10μΜ, in %): 75.1
cell viability, IGR37 GP, 10μΜ ([5]; 10μΜ): 83.5%
cell viability, IGR37 GP, 1μΜ ([5]; 1μΜ, in %): 93.8
cell viability, 501Mel Parental, 1μΜ (501Mel cells (parental); 1μΜ, in %): 94.5
cell viability, 501Mel Parental, 10μΜ (501Mel cells (parental); 10μΜ, in %): 65.9
cell viability, IGR37 Parental, 10μΜ (IGR37 cells (parental); 10μΜ, in %): 35.1
cell viability, IGR37 XP, 10μΜ ([6]; 10μΜ): 45.1%
cell viability, IGR37 XP, 1μΜ [6]: 92.3

Cc1cc(Nc2cc(N3CCN(C)CC3)nc(Sc3ccc(NC(=O)C4CC4)cc3)n2)n[nH]1 [VX-680 (MK-0457, Tozasertib)]
cell viability (kinase inhibitor library screening) ([1]; 1μΜ): 56.4%
cell viability (kinase inhibitor library screening) ([1]; 10μΜ): 35.5%
cell viability (kinase inhibitor library screening) ([2]; 1μΜ): 45.1%
cell viability (kinase inhibitor library screening) ([2]; 10μΜ): 30.5%
cell viability (kinase inhibitor library screening) (A375 cells (parental); 10μΜ): 26.3%
cell viability (kinase inhibitor library screening) (A375 cells (parental); 1μΜ): 47.5%
cell viability (kinase inhibitor library screening) ([3]; 1μΜ): 74.1%
cell viability (kinase inhibitor library screening) ([3]; 10μΜ): 26.8%
cell viability (kinase inhibitor library screening) ([4]; 1μΜ): 85.8%
cell viability (kinase inhibitor library screening) ([4]; 10μΜ): 48.3%
cell viability (kinase inhibitor library screening) ([5]; 1μΜ): 94.7%
cell viability (kinase inhibitor library screening) ([5]; 10μΜ): 11.6%
cell viability (kinase inhibitor library screening) (501Mel cells (parental); 1μΜ): 85.5%
cell viability (kinase inhibitor library screening) (501Mel cells (parental); 10μΜ): 48.7%
cell viability (kinase inhibitor library screening) (IGR37 cells (parental); 1μΜ): 89.0%
cell viability (kinase inhibitor library screening) (IGR37 cells (parental); 10μΜ): 63.5%
cell viability (kinase inhibitor library screening) ([6]; 10μΜ): 3.9%

NC(=O)c1ccc(N(C(N)=O)c2c(F)cccc2F)nc1-c1ccc(F)cc1F [VX-702]
Cell viability in kinase inhibitor library screening, A375 XP, 1μΜ ([1]; 1μΜ): 104.7
Cell viability in kinase inhibitor library screening, A375 XP, 10μΜ ([1]; 10μΜ): 104.6
Cell viability in kinase inhibitor library screening, A375 GP, 10μΜ ([2]; 10μΜ): 97.2
Cell viability in kinase inhibitor library screening, A375 Parental, 10μΜ (A375 cells (parental); 10μΜ): 90.0
Cell viability in kinase inhibitor library screening, A375 Parental, 1μΜ (A375 cells (parental); 1μΜ): 102.7
Cell viability in kinase inhibitor library screening, 501Mel XP, 1μΜ ([3]; 1μΜ, in %): 91.5
Cell viability in kinase inhibitor library screening, 501Mel XP, 10μΜ ([3]; 10μΜ, in %): 83.4
Cell viability in kinase inhibitor library screening, 501Mel GP, 1μΜ ([4]; 1μΜ, in %): 99.8
Cell viability in kinase inhibitor library screening, 501Mel GP, 10μΜ ([4]; 10μΜ, in %): 87.7
Cell viability in kinase inhibitor library screening, IGR37 GP, 10μΜ ([5]; 10μΜ): 93.6%
Cell viability in kinase inhibitor library screening, IGR37 GP, 1μΜ ([5]; 1μΜ, in %): 98.3
Cell viability in kinase inhibitor library screening, 501Mel Parental, 10μΜ (501Mel cells (parental); 10μΜ, in %): 97.1
Cell viability in kinase inhibitor library screening, IGR37 Parental, 10μΜ (IGR37 cells (parental); 10μΜ, in %): 103.3
Cell viability in kinase inhibitor library screening, IGR37 XP, 10μΜ ([6]; 10μΜ): 76.8%
